Counter-ions that a name gives are not always drawn.
Assays:
[1] = tested on: p-MEK and p-ERK levels in HUVECs; assay: Western Blot, inhibition of MAPK pathway in cellular assay (Example 105); type: cell-based, human; details: 50 ng/ml VEGF or FGF
Experimental: Some compounds described by the general structure (B) were tested for inhibition of MAPK pathway in cellular assay. Western Blot: Early passage primary human umbilical vein endothelial cells (HUVECs) were maintained in EGM-2 containing SingleQuots (Cambrex, East Rutherford, N.J.), 10% FBS, 10 mM HEPES, and 50 μg/ml gentamicin. Prior to treatment of the cells with inhibitor, the HUVECs were starved for 18 h by replacing serum-containing complete media with serum-free and SingleQuot-free media. The starved cells were pre-treated with inhibitors for 60 min at various concentrations (0-20 μM). Next the HUVECs were treated with 50 ng/ml VEGF or FGF (Peprotech, Rocky Hill, N.J.) for 6 min and the cells were immediately washed with ice-cold PBS. Cells were lysed with ice-cold RIPA buffer containing 100 mM Tris pH 7.5, 150 mM NaCl, 1 mM EDTA, 1% deoxycholate, 1% Triton X-100, 0.1% SDS, 2 mM PMSF, one Complete-Mini protease inhibitor tablet (Roche, Indianapolis, Ind.; 1 tablet/7 ml of lysis buffer) and the phophatase inhibitors NaF (500 mM) and orthovanadate (1 mM). The cells were scraped and lysates transferred and centrifuged at 15,000 g for 10 main. Supernatants were transferred to new tubes and protein concentration was quantitated using the BCA protein reagent (Pierce, Rockford, Ill.). Cell lysates containing 20 μg of total protein were separated by 10% SDS-PAGE, transferred to nitrocellulose, and blocked in 5% milk in TBST. Anti phospho-ERK Thr 202/Tyr 204 (Cell Signaling, Beverly, Mass.), anti-phospho-MEK Ser217/221 (Cell Signaling), and c-Raf (BD Biosciences Pharmingen, San Diego, Calif.) used as primary antibodies were detected with horseradish peroxidase-conjugated goat anti-mouse or rabbit secondary antibodies and bands were visualized using the SuperSignal West Pico chemiluminescence reagent system (Pierce) and Kodak X-ray film (Rochester, N.Y.).

HUVECs = assay: XTT cell viability assay (Example 106); type: cell-based, human; details: Homo sapiens, HUVEC, 72 hours, read-out: Inhibition of HUVEC cell prolifiration (IC50)
Experimental: Some compounds described by the general structure (B) were tested for cell viability. XTT assay: HUVECs were seeded at 10,000 cells/well of a tissue culture treated 96-well plate treated with collagen type I and grown overnight in the complete EGM-2 media as described above. The following morning, the inhibitors were serial diluted with DMSO and added to the cells with a final DMSO concentration of 1%. After 72 hours cell viability was measured with an XTT assay (Sigma, St. Louis, Mo.). The cells were also photographed to compare morphological differences to the XTT trends observed. Determination of the IC50 values was performed with quantitative software (Prism software package, GraphPad Software, San Diego Calif.).

Row | Compound | Western Blot ([1]; at 10 uM) | IC50 (HUVECs) [µM] | Western Blot ([1]; at 5 uM)
1 | O=C(Nc1nnc(-c2ccc(Oc3cccnc3)cc2)o1)c1ccc2c(c1)OC(F)(F)O2 [2,2-Difluoro-N-{5-[4-(pyridin-3-yloxy)phenyl]-1,3,4-oxadiazol-2-yl}-1,3-benzodioxole-5-carboxamide] | not active at 10 uM | > 40 | 
2 | O=C(Nc1nnc(-c2ccc(Oc3cccnc3)cc2)o1)c1cc(C(F)(F)F)cc(Cl)c1F [3-Chloro-2-fluoro-N-{5-[4-pyridin-3-yloxy)phenyl]-1,3,4-oxadiazol-2-yl}-5-trifluoromethyl)-benzamide] | not active at 10 uM | > 40 | 
3 | O=C(Nc1nnc(-c2ccc(Oc3cccnc3)cc2)o1)c1ccc(Br)cc1 [4-Bromo-N-{5-[4-(pyridin-3-yloxy)phenyl]-1,3,4-oxadiazol-2-yl}-benzamide] | not active at 10 uM | > 40 | 
4 | O=C(Nc1nnc(-c2ccc(Oc3cccnc3)cc2)o1)c1ccc(F)c(C(F)(F)F)c1 [4-Fluoro-N-{5-[4-(pyridin-3-yloxy)phenyl]-1,3,4-oxadiazol-2-yl}-3-(trifluoromethyl)-benzamide] | active at 10 uM | ~20 | 
5 | CNC(=O)c1cc(Oc2ccc(-c3nnc(Nc4ccc(Cl)c(C(F)(F)F)c4)o3)cc2)ccn1 [4-[4-(5-{[4-chloro-3-(trifluoromethyl)phenyl]amino}-1,3,4-oxadiazol-2-yl)phenoxy]-N-methylpyridine-2-carboxamide trifluoroacetate salt] |  | 5.6 | active at 5 uM
6 | CNC(=O)c1cc(Oc2ccc(Nc3nnc(-c4ccc(Cl)c(C(F)(F)F)c4)[nH]3)cc2)ccn1 [4-[4-({5-[4-chloro-3-(trifluoromethyl)phenyl]-4H-1,2,4-triazol-3-yl}amino)phenoxy]-N-methylpyridine-2-carboxamide trifluoroacetate salt] |  | > 40 | 
7 | COc1ccc(C(=O)Nc2nnc(-c3ccc(Oc4cccnc4)cc3)o2)cc1C(F)(F)F [4-methoxy-N-{5-[4-(pyridin-3-yloxy)phenyl]-1,3,4-oxadiazol-2-yl}-3-(trifluoromethyl)-benzamide] | active at 10 uM | > 40 | 
8 | CNC(=O)c1cc(Oc2cccc(-c3nnc(Nc4ccc(Cl)c(C(F)(F)F)c4)[nH]3)c2)ccn1 [4-{3-[5-(4-chloro-3-trifluoromethyl-phenylamino)-4H-[1,2,4]triazol-3-yl]-phenoxy}-pyridine-2-carboxylic acid methylamide trifluoroacetic acid salt] |  | > 20 | 
9 | CNC(=O)c1cc(Oc2ccc(-c3nnc(Nc4ccc(Cl)c(C(F)(F)F)c4)[nH]3)cc2)ccn1 [4-{4-[5-(4-chloro-3-trifluoromethyl-phenylamino)-4H-[1,2,4]triazol-3-yl]-phenoxy}-pyridine-2-carboxylic acid methylamide trifluoroacetic acid salt] | active at 10 uM | 2.85 | 
10 | CNC(=O)c1cc(Oc2ccc(Nc3nnc(-c4ccc(OC(F)(F)F)cc4)[nH]3)cc2)ccn1 [4-{4-[5-(4-trifluoromethoxy-phenyl)-4H-[1,2,4]triazol-3-ylamino]-phenoxy}-pyridine-2-carboxylic acid methylamide trifluoroacetic acid salt] |  | 2.2 | 
11 | CNC(=O)c1cc(Oc2ccc(-c3nnc(Nc4ccc(OC(F)(F)F)cc4)[nH]3)cc2)ccn1 [4-{4-[5-(4-trifluoromethoxy-phenylamino)-4H-[1,2,4]triazol-3-yl]-phenoxy}-pyridine-2-carboxylic acid methylamide trifluoroacetic acid salt] |  | > 40 | 
12 | Br.Nc1nnc(-c2ccc(Oc3cccnc3)cc2)o1 [5-[4-(Pyridin-3-yloxy)phenyl]-1,3,4-oxadiazol-2-amine hydrobromide salt] | not active at 10 uM | > 40 | 
13 | FC(F)(F)c1cccc(Nc2nnc(-c3ccc(Oc4cccnc4)cc3)o2)c1 [5-[4-(Pyridin-3-yloxy)phenyl]-N-[3-trifluoromethyl-phenyl]-1,3,4-oxadiazol-2-amine] | active at 10 uM | > 20 | 
14 | Clc1ccc(Nc2nnc(-c3ccc(Oc4cccnc4)cc3)o2)cc1 [5-[4-(Pyridin-3-yloxy)phenyl]-N-[4-chloro-phenyl]-1,3,4-oxadiazol-2-amine] | active at 10 uM | 9.6 | 
15 | FC(F)(F)c1ccc(Cl)c(Nc2nnc(-c3ccc(Oc4cncnc4)cc3)o2)c1 [5-[4-(Pyrimidin-5-yloxy)phenyl]-N-[2-chloro-5-(trifluoromethyl)-phenyl]-1,3,4-oxadiazol-2-amine] |  | ~20 | 
16 | FC(F)(F)c1cccc(Nc2nnc(-c3ccc(Oc4cncnc4)cc3)o2)c1 [5-[4-(Pyrimidin-5-yloxy)phenyl]-N-[3-(trifluoromethyl)phenyl]-1,3,4-oxadiazol-2-amine] |  | > 10 | active at 5 uM
17 | Clc1cccc(Nc2nnc(-c3ccc(Oc4cncnc4)cc3)o2)c1 [5-[4-(Pyrimidin-5-yloxy)phenyl]-N-[3-chloro-phenyl]-1,3,4-oxadiazol-2-amine] |  | ~20 | active at 5 uM
18 | Clc1ccc(Nc2nnc(-c3ccc(Oc4cncnc4)cc3)o2)cc1 [5-[4-(Pyrimidin-5-yloxy)phenyl]-N-[4-chloro-phenyl]-1,3,4-oxadiazol-2-amine] |  | > 20 | active at 5 uM
19 | FC(F)(F)c1cc(-c2nnc(Nc3ccc(Oc4cccnc4)cc3)[nH]2)ccc1Cl [5-[4-chloro-3-(trifluoromethyl)phenyl]-N-[4-(pyridine-3-yloxy)phenyl]-4H-1,2,4-triazol-3-amine trifluoroacetate salt] |  | > 40 | active at 5 uM
20 | FC(F)(F)c1cc(-c2nnc(Nc3ccc(Oc4ccncc4)cc3)[nH]2)ccc1Cl [5-[4-chloro-3-(trifluoromethyl)phenyl]-N-[4-(pyridine-4-yloxy)phenyl]-4H-1,2,4-triazol-3-amine trifluoroacetate salt] |  | > 40 | 
21 | Nc1cc(Oc2ccc(-c3nnc(Nc4cc(C(F)(F)F)ccc4Cl)o3)cc2)nc(N)n1 [6-(4-{5-[(2-chloro-5-trifluoromethyl-phenyl)amino]-1,3,4-oxadiazol-2-yl}phenoxy)pyrimidine-2,4-diamine] |  | ~20 | 
22 | Nc1ccc(Oc2ccc(-c3nnc(Nc4ccc(Cl)c(C(F)(F)F)c4)[nH]3)cc2)nn1 [6-{4-[5-(4-chloro-3-trifluoromethyl-phenylamino)-4H-[1,2,4]triazol-3-yl]-phenoxy}-pyridazin-3-ylamine trifluoroacetic acid salt] |  | 1.79 | 
23 | Nc1ccc(Oc2ccc(-c3nnc(Nc4ccc(OC(F)(F)F)cc4)[nH]3)cc2)nn1 [6-{4-[5-(4-trifluoromethoxy-phenylamino)-4H-[1,2,4]triazol-3-yl]-phenoxy}-pyridazin-3-ylamine trifluoroacetic acid salt] |  | > 20 | 
24 | Nc1cc(Oc2ccc(-c3nnc(Nc4ccc(OC(F)(F)F)cc4)[nH]3)cc2)nc(N)n1 [6-{4-[5-(4-trifluoromethoxy-phenylamino)-4H-[1,2,4]triazol-3-yl]-phenoxy}-pyrimidine-2,4-diamine trifluoroacetic acid salt] |  | 6 | 
25 | FC(F)(F)Oc1ccc(Nc2nnc(-c3ccc(Oc4ccncc4)cc3)[nH]2)cc1 [{5-[4-(pyridin-4-yloxy)-phenyl]-4H-[1,2,4]triazol-3-yl]-(4-trifluoromethoxy-phenyl)-amine trifluoroacetic acid salt] |  | > 40 | 
